The values that follow come from US20220106304A1, “Transcription Factor BRN2 Inhibitory Compounds as Therapeutics and Methods for Their Use” (The University of British Columbia, priority 2018, published 2022).

The subject of data set [1] is 42D^ENZR cells vs 16D^CRPC cells. The experiment in a line: Cell proliferation specificity, 42D^ENZR cells vs 16D^CRPC cells. The class given is cell-based. The conditions noted are these: 42D cells express BRN2, 16D cells do not; some also LNCaP; result in words. How it is done:
Plate 42DENZR (˜7000 cells per well) and 16D^CRPC (˜5000 cells per well) cells in 96 well plate with a volume of 100 μL per well. • 2. Next day 1 mL aliquots of media are combined with 3× the desired concentration of compounds. The aliquots are vortexed and 50 μL of each 3× concentration is added to the 100 μL of media in each well to give the ix desired concentration.
The following are the desired concentrations:
0, 10 nM, 100 nM, 500 nM, 1 μM, 2.5 μM, 5 μM, 10 μM, 15 μM, […], 30 μM. • 3. Approximately 72 hours later, 17 μL of 10% Glutaraldehyde is added to each well and plates are placed on a shaker for 20-30 minutes. • 4. Media is washed off the fixed cells by slow submersion in a container of water. Then the water is removed by tapping the plate upside down. • 5. 75 μL of Crystal Violet™ solution is added into the 96 well plates and placed on a shaker for ˜30 minutes. • 6. Media is washed off the fixed cells by repeated slow submersion in a container of water and the plates are allowed to dry over-night. • 7. Next day, 75 μL of Sorensen Solution is accurately pipetted into each well. The plates placed on a shaker for ˜30 minutes. • 8. Absorbance is measured in the plate at 590 nm.
Compounds that Show Specificity Towards 42D^ENZR Cells Vs 16D^CRPC Cells Progress to Step 4.
(§1) Where data is not available “na” is inserted.

Data set [2] addresses T1, BRN2 (Homo sapiens, UniProt P20265).
T1 sequence (P20265 1-443): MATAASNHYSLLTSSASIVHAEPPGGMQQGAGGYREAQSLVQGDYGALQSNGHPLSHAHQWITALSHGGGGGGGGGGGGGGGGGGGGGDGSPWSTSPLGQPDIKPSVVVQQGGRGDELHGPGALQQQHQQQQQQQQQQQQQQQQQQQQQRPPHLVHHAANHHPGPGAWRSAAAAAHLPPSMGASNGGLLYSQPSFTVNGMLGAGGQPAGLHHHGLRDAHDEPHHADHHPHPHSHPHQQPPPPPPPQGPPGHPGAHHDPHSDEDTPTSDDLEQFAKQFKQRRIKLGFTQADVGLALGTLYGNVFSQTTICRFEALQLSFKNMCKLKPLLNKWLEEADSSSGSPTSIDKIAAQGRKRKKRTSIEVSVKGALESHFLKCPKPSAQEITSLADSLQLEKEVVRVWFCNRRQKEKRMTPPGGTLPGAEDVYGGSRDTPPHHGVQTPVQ
Put plainly: cell-based. The conditions noted are these: negative = activation; for inhibition at 10 µM: read-out: % BRN2 Inhibition (10 μM), 10 μM compound, 24 hours, 42D^ENZR cells stably expressing BRN2-luciferase reporter; for inhibition at 30 µM: read-out: % BRN2 Inhibition (30 μM), 30 μM compound, 24 hours, 42D^ENZR cells stably expressing BRN2-luciferase reporter. Background: A reporter such as luciferase makes a cellular process visible.

Data set [3] can be described thus: Liver microsome metabolic stability, MLM. The class given is in vitro ADME. The note with it: MLM (single value or second of two), 1 μM compound, 0.25 mg/mL protein; for Met Stab % (60 mins HLM/MLM): percent remaining at 60 min, 1 mM NADPH; for half-life at 1 µM: mouse, liver microsomes, pH 7.4, read-out: T1/2 in (mins HLM/MLM). How it is done: (§2) Potassium phosphate buffer (Kphos) was prepared by adding 0.647 g potassium phosphate monobasic (KH2PO4) and 3.527 g potassium phosphate dibasic ([…]) to 400 mL of Milli-Q water. pH of the buffer was adjusted to 7.4 and volume was made up to 500 mL.
(§3) Microsomes (20 mg/mL) were diluted in KH2PO4 buffer to prepare a concentration of 0.357 mg/mL.
(§4) Stock solutions of BRN2 inhibitors were prepared in DMSO at a concentration of 1 mM
(§5) A stock solution of 3.33 mM NADPH (3.33×) was prepared by dissolving appropriate amount of NADPH in KH2PO4 buffer.
(§6) Total Incubation volume: 100 μL
(§7) Compound concentration: 1 μM
(§8) Protein Concentration: 0.25 mg/mL
(§9) An 1120 μL aliquot of Kphos buffer (50 mM, pH 7.4) containing liver microsomes (0.357 mg/mL) were added to individual 2 mL tubes (final concentration 0.25 mg/mL). Test compounds (1 mM) and positive controls were directly spiked into respective tubes to prepare a concentration of 1.428 μM (final concentration 1 μM). From the above mix, 70 μL was added to individual wells of 96 well reaction plates and pre-incubated in a 37° C. water bath for 5 min. All the reactions were initiated by adding 30 μL of 3.33 mM NADPH (final concentration 1 mM). Reactions without NADPH and buffer controls (minus NADPH) at 0 min and 60 min were also incubated to rule out non-NADPH metabolism or chemical instability in the incubation buffer. All reactions were terminated using 100 μL of ice-cold acetonitrile containing internal standard at 0, 5, 15, 30 and 60 min. The plates were centrifuged at 4000 RPM for 15 min and 100 μL aliquots were submitted for analysis by LC-MS/MS.
(§10) Samples were monitored for parent compounds disappearance in MRM mode using LC-MS/MS.
(§11) The percent remaining of test compounds and positive control in each sample was determined by considering peak area ratio in the 0 minute sample as 100%. The Half-life of compounds in microsomes is calculated by formula:
(§12) Half-life (t½) (min)=0.693/k, where k is gradient of line determined from plot of peak area ratio (compound peak area/internal standard peak area) against time.
(§13) In vitro intrinsic clearance (CL'int) (units in mL/min/kg) was calculated using the formula.
(§14) [formula] • For liver microsomes, scaling factor used was 45 mg microsomal protein per gm liver. • Indicates liver weight (gm) which varies species wise. For mice the liver weights are 90 gm.
as §1
Background: Microsomes from liver hold many membrane-bound enzymes, among them those of drug oxidation.

Data set [4] can be described thus: Liver microsome metabolic stability, HLM. It counts as in vitro ADME. The conditions noted are these: HLM (first of two values), 1 μM compound, 0.25 mg/mL protein; for Met Stab % (60 mins HLM/MLM): percent remaining at 60 min, 1 mM NADPH; for half-life at 1 µM: human, liver microsomes, pH 7.4, read-out: T1/2 in (mins HLM/MLM). How it is done: as §2, §3, §4, §5, §6, §7, §8, §9, §10, §11, §12, §13, §14, §1

Where only a bound is given, the exact number is not on record here.

In general, inhibition refers to the drop in the measured response relative to a control, in per cent. As to `Cc1c(-c2csc(-c3ccccn3)n2)oc2ccccc12` [VPC-18-13], the specificity entry in data set [1] is recorded as “VPC-18-13 (specific)”. Further, in data set [2], the inhibition at 10 µM came to 98.3% and the inhibition at 30 µM turned out to be 99.9%.

`c1coc(-c2nc(-c3cc4ccccc4o3)cs2)c1` [VPC-18-14]: the specificity entry in data set [1] is on record as “VPC-18-14 (specific)”. In addition, in data set [2], the inhibition at 10 µM came to 95.9% and the inhibition at 30 µM turned out to be 96.6%.

Take `c1ccc(-n2cc(-c3nc4ccccc4o3)cn2)cc1` [VPC-18-18]: the specificity entry in data set [1] is recorded as “VPC-18-18 (specific- affects 42D but not 16D)”. Also, in data set [2], the inhibition at 10 µM came out at 82.8% and the inhibition at 30 µM worked out at 87%.

Take `Cn1c(-c2ccc(-c3ccccc3)o2)nc2ccc(Cl)cc21` [VPC-18-42, 6-Chloro-1-methyl-2-(5-phenylfuran-2-yl)-1H-benzo[d]imidazole]: in data set [3], the “Met Stab % (60 mins HLM/MLM)” value was determined as 1% and the half-life at 1 µM is 11 min. Also, in data set [4], the “Met Stab % (60 mins HLM/MLM)” value worked out at 15% and the half-life at 1 µM was found to be 23 min. For the same molecule, in data set [2], the inhibition at 10 µM came to 77.3% and the inhibition at 30 µM was determined as 76.8%.

Turning to `Cn1c(-c2csc(-c3ccccc3F)n2)nc2ccc(F)cc21` [VPC-18-45, 4-(6-Fluoro-1-methyl-1H-benzo[d]imidazol-2-yl)-2-(2-fluorophenyl)thiazole], in data set [3], the “Met Stab % (60 mins HLM/MLM)” value was found to be 22% and the half-life at 1 µM turned out to be 32 min. Also, in data set [4], the “Met Stab % (60 mins HLM/MLM)” value stood at 35% and the half-life at 1 µM worked out at 42 min. In data set [2], the inhibition at 10 µM is 7.53% and the inhibition at 30 µM is 47.2%.

Turning to `Cn1c(-c2ccc(-c3ccccc3)o2)nc2ccc(S(N)(=O)=O)cc21` [VPC-18-47, 1-Methyl-2-(5-phenylfuran-2-yl)-1H-benzo[d]imidazole-6-sulfonamide], in data set [3], the “Met Stab % (60 mins HLM/MLM)” value is given as 53% and the half-life at 1 µM was more than 60 min. For the same molecule, in data set [4], the “Met Stab % (60 mins HLM/MLM)” value is given as 54% and the half-life at 1 µM was more than 60 min. In data set [2], the inhibition at 10 µM was 39.8% and the inhibition at 30 µM was found to be 82.1%.

`O=[N+]([O-])c1ccc2nc(-c3csc(-c4ccco4)n3)[nH]c2c1` [VPC-18-48, 2-(Furan-2-yl)-4-(6-nitro-1H-benzo[d]imidazol-2-yl)thiazole]: in data set [3], the “Met Stab % (60 mins HLM/MLM)” value is reported as 2% and the half-life at 1 µM came to 10 min. Moreover, in data set [4], the “Met Stab % (60 mins HLM/MLM)” value was 9% and the half-life at 1 µM worked out at 17 min. Also, in data set [2], the inhibition at 10 µM is -6.56% and the inhibition at 30 µM was found to be 91.2%.

As for `Cc1c(-c2csc(-c3ccco3)n2)oc2ccccc12` [VPC-18-53, 2-(Furan-2-yl)-4-(3-methylbenzofuran-2-yl)thiazole], in data set [3], the “Met Stab % (60 mins HLM/MLM)” value is recorded as 2% and the half-life at 1 µM is 2 min. For the same molecule, in data set [4], the “Met Stab % (60 mins HLM/MLM)” value was 39% and the half-life at 1 µM turned out to be 42 min. For the same molecule, in data set [2], the inhibition at 10 µM came to 78.1% and the inhibition at 30 µM turned out to be 84.5%.

Take `Clc1ccc2cc(-c3csc(-c4ccco4)n3)oc2c1` [VPC-18-66, 4-(6-chlorobenzofuran-2-yl)-2-(furan-2-yl)thiazole]: the specificity result in data set [1] is “VPC-18-66 (specific- no effect on LNCaP and 16D)”. Besides, in data set [3], the “Met Stab % (60 mins HLM/MLM)” value stood at 31% and the half-life at 1 µM was 42 min. In data set [2], the inhibition at 10 µM stood at 82% and the inhibition at 30 µM is 94%.

As for `c1ccc2oc(-c3csc(-c4ccoc4)n3)cc2c1` [VPC-18-76, 4-(benzofuran-2-yl)-2-(furan-3-yl)thiazole], the specificity result in data set [1] was “VPC-18-76 (specific)”. For the same molecule, in data set [3], the “Met Stab % (60 mins HLM/MLM)” value stood at 1% and the half-life at 1 µM is 9 min. Besides, in data set [2], the inhibition at 10 µM was determined as 96.3% and the inhibition at 30 µM was determined as 94.9%.

With `c1coc(-c2nc(-c3coc4ccccc34)cs2)c1` [VPC-18-81, 4-(benzofuran-3-yl)-2-(furan-2-yl)thiazole], in data set [1], the specificity entry is given as “VPC-18-81 (specific to 42D)”. Also, in data set [3], the “Met Stab % (60 mins HLM/MLM)” value was 2% and the half-life at 1 µM stood at 11 min. Moreover, in data set [2], the inhibition at 10 µM stood at 97% and the inhibition at 30 µM was determined as 99%.

Regarding `Clc1ccc2cc(-c3coc(-c4ccc[nH]4)n3)oc2c1` [VPC-18-127, 4-(6-chlorobenzofuran-2-yl)-2-(1H-pyrrol-2-yl)oxazole], in data set [1], the specificity result is given as “VPC-18- 127 (specific)”. Moreover, in data set [3], the “Met Stab % (60 mins HLM/MLM)” value came to 16% and the half-life at 1 µM amounted to 22 min.

For the molecule `Clc1ccc2cc(-c3nccc(-c4ccc[nH]4)n3)oc2c1` [VPC-18-133, 2-(6-chlorobenzofuran-2-yl)-4-(1H-pyrrol-2-yl)pyrimidine], the specificity result in data set [1] was “VPC-18- 133 (specific)”. Moreover, in data set [3], the “Met Stab % (60 mins HLM/MLM)” value turned out to be 1% and the half-life at 1 µM stood at 8 min.

For the molecule `Cn1cccc1-c1nc(-c2cc3ccc(Cl)cc3o2)cs1` [VPC-18-139, 4-(6-chlorobenzofuran-2-yl)-2-(1-methyl-1H-pyrrol-2-yl)thiazole], the specificity result in data set [1] is “VPC-18- 139 (specific)”. For the same molecule, in data set [3], the “Met Stab % (60 mins HLM/MLM)” value is 23% and the half-life at 1 µM turned out to be 30 min.

`FC(F)(F)c1ccc2cc(-c3nccc(-c4ccc[nH]4)n3)oc2c1` [VPC-18-140, 4-(1H-pyrrol-2-yl)-2-(6-(trifluoromethyl)benzofuran-2-yl)pyrimidine]: in data set [1], the specificity result was “VPC-18- 140 (specific)”. In addition, in data set [3], the “Met Stab % (60 mins HLM/MLM)” value was 2% and the half-life at 1 µM is 10 min.

For the molecule `Clc1ccc2cc(-c3nccc(-c4ccco4)n3)oc2c1` [VPC-18-141, 2-(6-chlorobenzofuran-2-yl)-4-(furan-2-yl)pyrimidine], the specificity result in data set [1] is “VPC-18- 141 (specific)”. In data set [3], the “Met Stab % (60 mins HLM/MLM)” value amounted to 3% and the half-life at 1 µM amounted to 13 min.

For the molecule `Cn1c(-c2ccc(-c3ccccc3)o2)nc2ccccc21` [VPC-18], in data set [1], the specificity result is on record as “VPC-18 (42D not 16D)”. Moreover, in data set [2], the inhibition at 10 µM is 97.6% and the inhibition at 30 µM was 99.4%.
